Test results taken from patent US20230109839A1, “THERAPEUTIC AGENT FOR TAUOPATHIES” (SUMITOMO PHARMA CO., LTD., priority 2020, published 2023).

Target: T1, human Nav1.1 (Homo sapiens, UniProt P35498)
T1 construct: host or cells: HEK293
Assay: Amplification of Nav1.1-derived voltage-gated sodium current (Nav1.1 current), automated patch clamp (Test 1)
Assay type: cell-based
Details: Concentration for evaluation 1 μM; HEK293 cell line stably expressing human Nav1.1
Procedure, shortened: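 Compound-induced change in ramp-evoked sodium current peak and AUC was expressed as 100×post/pre ratio minus 100. Recordings used automated patch clamp in voltage-clamp mode on a stable human Nav1.1 HEK293 line, including only cells above 500 pA. Compounds were delivered in extracellular fluid containing 1% DMSO.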

| SMILES | Nav1.1 current amplification rate (%) |
| --- | --- |
| CN(c1cnc2cnn(CC(=O)Nc3ccc4cnncc4c3)c2n1)C1CC1 [Example 733] | 76% |
| Cc1nc2cc(NC(=O)Cn3ncc4ncc(N(C)C5CCCC5)nc43)cnc2s1 [Example 676] | 36% |
| CN(CCC1CC1)c1cnc2cnn(CC(=O)Nc3ccc4cncnc4c3)c2n1 [Example 647] | 165% |
| CC1CC=C(c2ccc(=O)n(CC(=O)N3CCc4c3ccnc4C3=CCN(C)C3)n2)CC1 (stereo not shown) [Example 283] | 15% |
| CC1CC=C(c2ccc(=O)n(CC(=O)Nc3ccc4c(cnn4C)c3)n2)CC1 (stereo not shown) [Example 336] | 68% |
| CN(c1cnc2cnn(CC(=O)Nc3ccc4oc(C(F)F)nc4c3)c2n1)C1CCCC1 [Example 678] | 132% |
| Cc1cc(NC(=O)Cn2ncc3ncc(N(C)C4CC4)nc32)cc2ncnn12 [Example 704] | 109% |
| CC1(C)CCN(c2cnc3cnn(CC(=O)Nc4ccc5ncnn5c4)c3n2)CC1 [Example 654] | 23% |

Now from value to compound:

| Nav1.1 current amplification rate (%) | SMILES |
| --- | --- |
| 46% | CC1CC=C(c2ccc(=O)n(CC(=O)N3CCc4c(-c5cc[nH]n5)ccc(F)c43)n2)CC1 (stereo not shown) [Example 292] |
| 35% | Cc1cc(NC(=O)Cn2ncc3ncc(N(C)C4CCCC4)nc32)cn2ncnc12 [Example 677] |
| 200% | CC1CC=C(c2ccc(=O)n(CC(=O)Nc3ccc(C#N)nc3)n2)CC1 (stereo not shown) [Example 360] |
| 130% | CC1CC=C(c2ccc(=O)n(CC(=O)Nc3ccc4ncncc4c3)n2)CC1 (stereo not shown) [Example 355] |

Same assay, conditions: Concentration for evaluation 3 μM; HEK293 cell line stably expressing human Nav1.1

| Nav1.1 current amplification rate (%) | SMILES |
| --- | --- |
| 55% | CC1CC=C(c2ccc(=O)n(CC(=O)N3CCc4c(C5CCNC5)cccc43)n2)CC1 (stereo not shown) [Example 268] |
| 77% | CC1CC=C(c2ccc(=O)n(CC(=O)N3CCc4cc(C5CN(C6COC6)C5)ccc43)n2)CC1 (stereo not shown) [Example 318] |

Same assay, conditions: Concentration for evaluation 10 μM; HEK293 cell line stably expressing human Nav1.1

| SMILES | Nav1.1 current amplification rate (%) |
| --- | --- |
| Cc1ccc(-c2nn(CC(=O)Nc3ccn4ccnc4c3)c(=O)c(C)c2C)cc1 [Example 156] | 33% |
| COc1cc(C2=CCC(C)CC2)nn(CC(=O)N2CCc3c(N4CCOCC4)cccc32)c1=O (stereo not shown) [Example 473] | 487% |
| CC1CC=C(c2ccc(=O)n(CC(=O)N3CCN(c4ccncc4)CC3)n2)CC1 (stereo not shown) [Example 261] | 60% |
| CC1CC=C(c2ccc(=O)n(CC(=O)Nc3ccnc(-c4cnn(C)c4)c3)n2)CC1 (stereo not shown) [Example 379] | 147% |
| O=C(Cn1nc(-c2cc(Cl)cs2)ccc1=O)Nc1ccc2ocnc2c1 [Example 454] | 157% |
| CC1CCN(c2ccc(=O)n(CC(=O)Nc3cccc(-c4nccs4)c3)n2)CC1 [Example 80] | 131% |
| COc1cc(NC(=O)Cn2nc(N3CCC(C)CC3)ccc2=O)ccn1 [Example 74] | 70% |
| CC1CCN(c2ccc(=O)n(CC(=O)Nc3ccc4scnc4c3)n2)CC1 [Example 87] | 255% |
| CC1CC=C(c2ccc(=O)n(CC(=O)N3CCc4c3ccnc4Cl)n2)CC1 (stereo not shown) [Example 247] | 53% |
| N#Cc1ccc(NC(=O)Cn2nc(N3CCCC(C(F)(F)F)C3)ccc2=O)cc1 (stereo not shown) [Example 16] | 59% |
| COc1cccc2c1CCN2C(=O)Cn1nc(C2=CCC(C)(C)CC2)ccc1=O [Example 431] | 11% |
| N#Cc1ccc(NC(=O)Cn2nc(N3CC4CC4C3)ccc2=O)cc1 (stereo not shown) [Example 18] | 11% |
| CC1CC(C)CN(c2ccc(=O)n(CC(=O)Nc3ccc(C#N)cc3)n2)C1 (stereo not shown) [Example 15] | 10% |
| Cc1ccc(-c2ccc(=O)n(CC(=O)N3CCc4cnccc43)n2)cc1 [Example 159] | 32% |
| CC1CC=C(c2ccc(=O)n(CC(=O)N3CCN(c4cnn(C)c4)CC3)n2)CC1 (stereo not shown) [Example 415] | 93% |

More lines, now with the values ahead:

| Nav1.1 current amplification rate (%) | SMILES |
| --- | --- |
| 102% | COc1cnc(C2=CCN(C(=O)Cn3nc(C4=CCC(C)CC4)ccc3=O)CC2)cn1 (stereo not shown) [Example 399] |
| 131% | CC1CCN(c2ccc(=O)n(CC(=O)Nc3ccn4nccc4c3)n2)CC1 [Example 71] |
| 15% | CC1CCN(c2ccc(=O)n(CC(=O)Nc3ccc4c(c3)ncn4C)n2)CC1 [Example 98] |
| 224% | COc1cc(C2=CCC(C)(C)CC2)nn(CC(=O)Nc2ccn3ccnc3c2)c1=O [Example 456] |
| 173% | CC1CC=C(c2ccc(=O)n(CC(=O)Nc3ccc(-c4cnn(C)c4)nc3)n2)CC1 (stereo not shown) [Example 375] |
| 167% | CC1CC=C(c2ccc(=O)n(CC(=O)N3CCc4c(C5CN(C(C)C)C5)cccc43)n2)CC1 (stereo not shown) [Example 304] |
| 19% | CC1CC=C(c2ccc(=O)n(CC(=O)N3CCN(Cc4cccnc4)CC3)n2)CC1 (stereo not shown) [Example 393] |
| 250% | COc1cc(C2=CCC(C)CC2)nn(CC(=O)Nc2ccc3ocnc3c2)c1=O (racemic) [Example 449] |
| 13% | CC1CC=C(c2ccc(=O)n(CC(=O)N3CCC(c4ccccn4)CC3)n2)CC1 (stereo not shown) [Example 260] |
| 6% | N#Cc1ccc(NC(=O)Cn2nc(N3CCC(F)(F)CC3)ccc2=O)cc1 [Example 5] |

Same assay, conditions: Concentration for evaluation 50 μM; HEK293 cell line stably expressing human Nav1.1

| Nav1.1 current amplification rate (%) | SMILES |
| --- | --- |
| 47% | C#CCN(C)c1cnc2cnn(CC(=O)Nc3ccc4ncnn4c3)c2n1 [Example 662] |

Same assay, conditions: HEK293, Concentration for evaluation 1 μM; HEK293 cell line stably expressing human Nav1.1; read-out: Nav1.1 current amplification rate (%)

| activation at 1 µM | SMILES |
| --- | --- |
| 14% | N#Cc1cnc(NC(=O)Cn2ncc3ncc(N4CCC5(CC5)C(F)(F)C4)nc32)cn1 [Example 754] |

Same assay, conditions: HEK293, Concentration for evaluation 10 μM; HEK293 cell line stably expressing human Nav1.1; read-out: Nav1.1 current amplification rate (%)

| activation at 10 µM | SMILES |
| --- | --- |
| 11% | O=C(Cn1nc(N2CCCCC2)ccc1=O)Nc1ccc(C(F)(F)F)nc1 [Example 104] |
| 30% | O=C(Cn1nc(N2CCCCC2)ccc1=O)Nc1ccnc(C(F)(F)F)c1 [Example 113] |

Same assay, conditions: HEK293, Concentration for evaluation 50 μM; HEK293 cell line stably expressing human Nav1.1; read-out: Nav1.1 current amplification rate (%)

| activation at 50 µM | SMILES |
| --- | --- |
| 39% | Cc1ccc(-c2cnc3cnn(CC(=O)N4CCN(c5ccncc5)CC4)c3n2)c(F)c1 [Example 743] |

Same assay, conditions: HEK293, concentration for evaluation 0.3 μM; HEK293 stably expressing human Nav1.1; read-out: Nav1.1 current amplification rate (%)

| activation at 0.3 µM | SMILES |
| --- | --- |
| 173% | CN(c1ccc2cnn(CC(=O)N3CCc4c(C5CC5)cccc43)c2n1)C1CC1 [Example 887] |
| 57% | CN(c1ncc2cnn(CC(=O)Nc3cnc4cccnc4c3)c2n1)C1CCCC1 [Example 849] |

Same assay, conditions: HEK293, concentration for evaluation 1 μM; HEK293 stably expressing human Nav1.1; read-out: Nav1.1 current amplification rate (%)

| SMILES | activation at 1 µM |
| --- | --- |
| CC1CCN(c2ncc3cnn(CC(=O)Nc4ccc(C#N)cn4)c3n2)CC1(F)F (stereo not shown) [Example 850] | 79% |
| O=C(Cn1ncc2ccc(-c3ccc(F)cc3F)nc21)Nc1ccc2ocnc2c1 [Example 884] | 34% |

Now from value to compound:

| activation at 1 µM | SMILES |
| --- | --- |
| 39% | CN(c1ccc2cnn(CC(=O)Nc3ccc4ncncc4c3)c2n1)C1CCCC1 [Example 892] |
| 446% | CC1CC=C(c2ccc3cnn(CC(=O)N4CCN(c5cccnc5)CC4)c3n2)CC1 (stereo not shown) [Example 881] |
| 209% | O=C(Cn1ncc2cnc(N3CCC4(CCC4)CC3)nc21)NC1=CC2N=CN=CC2C=C1 (stereo not shown) [Example 885] |

Same assay, conditions: concentration for evaluation 1 μM; HEK293 stably expressing human Nav1.1

| SMILES | Nav1.1 current amplification rate (%) |
| --- | --- |
| O=C(Cn1ncc2cnc(N3CCC4(CC4)C(F)(F)C3)nc21)Nc1ccc(-n2ccnc2)nc1 [Example 824] | 240% |
| CN(CC1(C)CC1)c1ncc2cnn(CC(=O)Nc3ccc4ncnn4c3)c2n1 [Example 822] | 42% |

Next, values leading:

| Nav1.1 current amplification rate (%) | SMILES |
| --- | --- |
| 49% | O=C(Cn1ncc2ccc(N3CCC4(CC4)C(F)(F)C3)nc21)Nc1ccn2ncnc2c1 [Example 863] |
| 87% | CN(c1ncc2cnn(CC(=O)Nc3ccc4ncnn4c3)c2n1)C1CCCC1 [Example 814] |
